The text below walks through data of patent US20200392079A1, “Compound, Photopolymerization Initiator Containing Said Compound, and Photosensitive Resin Composition Containing Said Photopolymerization Initiator” (Nippon Kayaku Kabushiki Kaisha, priority 2018, published 2020).

This series is described as follows: Solubility evaluation experiment (time required for dissolving in solvent). The format is physicochemical. How it is done:
After the components were mixed in a glass container in accordance with the formulation amounts (parts by mass) listed in Table 1, the solution was placed on a hot plate at 50° C. and stirred with a glass bar. The time (minute) required for dissolving was measured to evaluate the solubility.

Where [1] appears, read: 0.50 parts initiator in 1.00 parts (D-1) Cyclopentanon, hot plate 50° C., stirred with glass bar.
The mark [2] stands for this setting: 0.50 parts initiator in (D-2) 1-methoxy-2-propanol (PGME), 1.00 parts (1.43 parts for C-5), 50° C.
[3] abbreviates: 0.50 parts initiator in (D-3) Polyethylene gylcol monomethylether acetate (PGMEA), 1.00-1.67 parts, 50° C.
[4] abbreviates: 0.50 parts initiator in (D-4) 3-betoxymethanol, 1.11 parts (>5 parts for C-5), 50° C.

Turning to `C=C(C)C(=O)OCCNC(=O)OCC(O)(C(=O)c1ccc(SC)cc1)c1ccc(SC)cc1` (centres unmarked) [Initiator C-1], the “Stirring time (time required for dissolving)” value (“Stirring time” below) under setting [1] was found to be 10 min, the “Stirring time” value under setting [2] amounted to 19 min, the “Stirring time” value under setting [3] turned out to be 25 min and the “Stirring time” value under setting [4] is reported as 40 min.

For `C=CC(=O)OCCNC(=O)OCC(O)(C(=O)c1ccc(SC)cc1)c1ccc(SC)cc1` (centres unmarked) [Initiator C-2], the “Stirring time” value under setting [1] is recorded as 15 min, the “Stirring time” value under setting [2] was found to be 12 min, the “Stirring time” value under setting [3] is reported as 20 min and the “Stirring time” value under setting [4] worked out at 40 min.
